Series [1] deals with HepG2. Put plainly: Cytotoxicity against human HepG2 cells after 72 hrs by MTT assay. The class given is cell-based. The following applies: HepG2, 72 h. In general terms: Tetrazolium assays rely on reduction of a dye to a coloured formazan, in cell work by metabolically active cells.
Series [2] relates to Enterococcus sp. Put plainly: Antibacterial activity against Enterococcus sp. J 14365/08 after 48 hrs by broth microdilution method. The class given is functional. As to conditions: J 14365/08, 48 h. For orientation: Broth dilution looks for growth in wells or tubes with falling amounts of substance.
In series [3] the test system is Staphylococcus epidermidis. Put plainly: Antibacterial activity against Staphylococcus epidermidis H 6966/08 after 24 hrs by broth microdilution method. The format is functional. As to conditions: H 6966/08, 24 h.
Series [4] is described as follows: Selectivity index, ratio of IC50 for human HepG2 cells to MIC for Staphylococci.
Series [5] relates to Staphylococcus aureus. Put plainly: Antibacterial activity against Staphylococcus aureus CCM 4516/08 after 48 hrs by broth microdilution method. The format is functional. As to conditions: CCM 4516/08, 48 h.
Series [6] deals with Staphylococcus aureus. Put plainly: Antibacterial activity against methicillin-resistant Staphylococcus aureus H 5996/08 after 48 hrs by broth microdilution method. The format is functional. As to conditions: H 5996/08, 48 h.
For series [7], the system named is Enterococcus sp. In words: Antibacterial activity against Enterococcus sp. J 14365/08 after 24 hrs by broth microdilution method. The format is functional. The following applies: J 14365/08, 24 h.
Series [8] relates to Staphylococcus epidermidis. Put plainly: Antibacterial activity against Staphylococcus epidermidis H 6966/08 after 48 hrs by broth microdilution method. As to conditions: H 6966/08, 48 h. The class given is functional.
Series [9] has as its system Staphylococcus aureus. In words: Antibacterial activity against Staphylococcus aureus CCM 4516/08 after 24 hrs by broth microdilution method. The class given is functional. The following applies: CCM 4516/08, 24 h.
The subject of series [10] is Staphylococcus aureus. In words: Antibacterial activity against methicillin-resistant Staphylococcus aureus H 5996/08 after 24 hrs by broth microdilution method. The format is functional. As to conditions: H 5996/08, 24 h.
Series [11] relates to Mycobacterium kansasii. Put plainly: Antimycobacterial activity against Mycobacterium kansasii 235/80 after 7 days by microdilution method. The class given is functional. As to conditions: 235/80, 168 h.
Series [12] has as its system Trichosporon asahii. Put plainly: Antifungal activity against Trichosporon asahii 1188 after 24 hrs by broth microdilution method. The class given is functional. The following applies: Trichosporon asahii, 1188, 24 h.
Series [13] is described as follows: Selectivity index, ratio of IC50 for human HepG2 cells to MIC for Mycobacterium tuberculosis. The format is toxicity, cell-based. The following applies: read-out: Selectivity Index.
Series [14] deals with Trichosporon asahii. In words: Antifungal activity against Trichosporon asahii 1188 after 48 hrs by broth microdilution method. The class given is functional. As to conditions: Trichosporon asahii, 1188, 48 h.
Series [15] concerns Mycobacterium kansasii. Put plainly: Antimycobacterial activity against Mycobacterium kansasii 235/80 after 21 days by microdilution method. The following applies: 235/80, 504 h. The format is functional.
Series [16] in a line: Selectivity index, ratio of IC50 for human HepG2 cells to MIC for atypical mycobacteria.
Series [17] concerns Mycobacterium avium. In words: Antimycobacterial activity against INH,RIF,OFX,EMB-resistant Mycobacterium avium 330/88 after 14 days by microdilution method. The class given is functional. As to conditions: 330/88, 336 h.
Series [18] concerns Mycobacterium kansasii. In words: Antimycobacterial activity against Mycobacterium kansasii 6509/96 after 14 days by microdilution method. The class given is functional. The following applies: 6509/96, 336 h.
The test system of series [19] is Mycobacterium kansasii. Put plainly: Antimycobacterial activity against Mycobacterium kansasii 6509/96 after 7 days by microdilution method. The format is functional. The following applies: 6509/96, 168 h.
The test system of series [20] is HepG2. Put plainly: Cytostatic activity against human HepG2 cells after 72 hrs by MTT assay. The format is functional, cell-based. The following applies: HepG2, 72 h.
Series [21] relates to Mycobacterium kansasii. Put plainly: Antimycobacterial activity against Mycobacterium kansasii 235/80 after 14 days by microdilution method. The class given is functional. The following applies: 235/80, 336 h.
Series [22] concerns Mycobacterium tuberculosis. In words: Antimycobacterial activity against Mycobacterium tuberculosis H37Rv 331/88 after 21 days by microdilution method. The format is functional. The following applies: H37Rv 331/88, 504 h.
Series [23] relates to Mycobacterium tuberculosis. In words: Antimycobacterial activity against Mycobacterium tuberculosis H37Rv 331/88 after 14 days by microdilution method. The format is functional. The following applies: H37Rv 331/88, 336 h.
The test system of series [24] is Mycobacterium kansasii. In words: Antimycobacterial activity against Mycobacterium kansasii 6509/96 after 21 days by microdilution method. As to conditions: 6509/96, 504 h. The class given is functional.
In series [25] the test system is Mycobacterium avium. In words: Antimycobacterial activity against INH,RIF,OFX,EMB-resistant Mycobacterium avium 330/88 after 21 days by microdilution method. The class given is functional. The following applies: 330/88, 504 h.
The nature of a further series: in vitro. As to conditions: human, HepG2 cells.
Another series has as its system Pichia kudriavzevii. In words: Antifungal activity against Candida krusei E28 after 24 to 48 hrs by broth dilution method. The format is functional, organism-based.
In the next series the test system is Candida tropicalis. In words: Antifungal activity against Candida tropicalis 156 after 24 to 48 hrs by broth dilution method. The format is functional, organism-based.
In the next series the test system is Lichtheimia corymbifera. Put plainly: Antifungal activity against Absidia corymbifera 272 after 24 to 48 hrs by broth dilution method. The format is functional, organism-based.
The subject of another series is Nakaseomyces glabratus. Put plainly: Antifungal activity against Candida glabrata 20/I after 24 to 48 hrs by broth dilution method. The format is functional, organism-based.
The test system of a further series is Aspergillus fumigatus. In words: Antifungal activity against Aspergillus fumigatus 231 after 24 to 48 hrs by broth dilution method. The class given is functional, organism-based.
The subject of series [26] is Trichophyton mentagrophytes. Put plainly: Antifungal activity against Trichophyton mentagrophytes 445 after 24 to 48 hrs by broth dilution method. The format is functional, organism-based.
For another series, the system named is Candida albicans. In words: Antifungal activity against Candida albicans ATCC 44859 after 24 to 48 hrs by broth dilution method. The class given is functional, organism-based.

Each structure is given as a SMILES string. In brackets after ≈: the same amount, converted by molar mass. Activity calls are given as the source filed them. Bridge positions count the residues as written; N and C are the ends. Square brackets hold non-standard residues; d marks the D form. Peptide text beside a SMILES is read from it. * marks the point of attachment. Ileψ(thiazoline)Cys = CC[C@H](C)[C@H](N)C1=N[C@H](C(=O)*)CS1; dOrn = NCCC[C@@H](N)C(=O)O Where only a bound is given, the exact number is not on record here.

Description for in vitro: Selectivity index, ratio of IC50 for human HepG2 cells to MIC for Mycobacterium kansasii 6509/96

Broadly, the IC50 is the point on the concentration scale where inhibition reaches its midpoint. Low readings indicate greater potency in that assay, high ones weaker potency in that assay. Broadly, the MIC is the smallest concentration in the dilution series that meets the test's criterion for growth inhibition. As for `CC[C@H](C)[C@H](N)C1=N[C@H](C(=O)N[C@@H](CC(C)C)C(=O)N[C@H](CCC(=O)O)C(=O)N[C@H](C(=O)N[C@H]2CCCCNC(=O)[C@H](CC(N)=O)NC(=O)[C@@H](CC(=O)O)NC(=O)[C@H](Cc3cnc[nH]3)NC(=O)[C@@H](Cc3ccccc3)NC(=O)[C@H]([C@@H](C)CC)NC(=O)[C@@H](CCCN)NC2=O)[C@@H](C)CC)CS1` [BACITRACIN] ({Ileψ(thiazoline)Cys}-L[dE]IK[dOrn]I[dF]H[dD]N; lactam 4-C), the IC50 with HepG2 [1] was determined as 255 µM. The MIC in the series on Enterococcus sp. [2] is 62.5 µM (≈ 88.9 µg/mL); in series [3], 15.6 µM (≈ 22.2 µg/mL); against Staphylococcus aureus [5] it was 15.6 µM (≈ 22.2 µg/mL); in the series on Staphylococcus aureus [6] it was 15.6 µM (≈ 22.2 µg/mL); against Enterococcus sp. [7] it was 15.6 µM (≈ 22.2 µg/mL); in series [8] it was 31.2 µM (≈ 44.5 µg/mL). In addition, the results for the MIC in the series with Staphylococcus aureus [9] and against Staphylococcus aureus [10] were 7.81 µM (≈ 11.1 µg/mL) and 15.6 µM (≈ 22.2 µg/mL), respectively. Moreover, the “Selectivity Index” value in series [4] was 8.1.

Consider `Cc1ccc(C(=O)Oc2ccc(Br)cc2C(=O)Nc2ccc(C(F)(F)F)cc2)cc1`, for which the MIC in the series on Mycobacterium kansasii [11] was 1 µM (≈ 0.478 µg/mL); in the series on Enterococcus sp. [2], > 125 µM; in series [3], > 125 µM; with Trichosporon asahii [12], > 125 µM; against Trichosporon asahii [14], > 125 µM; with Staphylococcus aureus [5], > 125 µM. Also, the minimal inhibitory concentration (MIC) in the series on Mycobacterium kansasii [15] is 2 µM (≈ 0.957 µg/mL); with Staphylococcus aureus [6], > 125 µM; against Mycobacterium avium [17], 4 µM (≈ 1.91 µg/mL); in the series with Enterococcus sp. [7], > 125 µM; in [8], > 125 µM; in the series with Mycobacterium kansasii [18], 2 µM (≈ 0.957 µg/mL). Further, the MIC against Mycobacterium kansasii [19] is 2 µM (≈ 0.957 µg/mL); in the series on Staphylococcus aureus [9] it was > 125 µM; in the series on Mycobacterium kansasii [21] it was 2 µM (≈ 0.957 µg/mL); in series [22], 1 µM (≈ 0.478 µg/mL); in [23], 1 µM (≈ 0.478 µg/mL); against Mycobacterium kansasii [24], 4 µM (≈ 1.91 µg/mL). For the same compound, the MIC against Staphylococcus aureus [10] was > 125 µM; against Mycobacterium avium [25], 8 µM (≈ 3.83 µg/mL). For the same compound, the IC50 in the series on HepG2 [1] was > 50 µM; in the series on HepG2 [20] it was 26.8 µM. Moreover, the selectivity ratio in series [13] is > 50. Also, in series [16], the “Selectivity Index” value is >6.25.

Turning to `NNC(=O)c1ccncc1` [ISONIAZID], the MIC is > 250 µM against Mycobacterium kansasii [11]; > 250 µM against Mycobacterium kansasii [15]; > 250 µM in the series with Mycobacterium avium [17]; 4 µM (≈ 0.549 µg/mL) in the series with Mycobacterium kansasii [18]; 2 µM (≈ 0.274 µg/mL) against Mycobacterium kansasii [19]; > 250 µM against Mycobacterium kansasii [21]. Besides, the MIC was 0.5 µM (≈ 0.0686 µg/mL) in series [22], 0.5 µM (≈ 0.0686 µg/mL) in series [23], 4 µM (≈ 0.549 µg/mL) against Mycobacterium kansasii [24] and > 250 µM against Mycobacterium avium [25]. In the series with HepG2 [1], the IC50 is > 250 µM. In addition, the selectivity ratio was > 250 in series [13] and ≥ 31.3 in the series “in vitro”.

As for `O=C(Oc1ccc(Cl)cc1C(=O)Nc1ccc(Cl)c(Cl)c1)c1ccc(Br)cc1`, the result (with Pichia kudriavzevii; in the series on Candida tropicalis; in the series with Lichtheimia corymbifera; in the series with Nakaseomyces glabratus; with Aspergillus fumigatus; in series [26]) was inactive. Further, the outcome in the series with Candida albicans was inactive. The MIC in the series on Mycobacterium kansasii [11] was 2 µM (≈ 0.999 µg/mL); in the series with Enterococcus sp. [2], 500 µM (≈ 250 µg/mL); in series [3], 0.49 µM (≈ 0.245 µg/mL); in the series on Trichosporon asahii [12] it was 500 µM (≈ 250 µg/mL); with Trichosporon asahii [14], > 500 µM; in the series on Staphylococcus aureus [5], 0.49 µM (≈ 0.245 µg/mL). Moreover, the MIC with Mycobacterium kansasii [15] amounted to 4 µM (≈ 2 µg/mL); against Staphylococcus aureus [6], 0.49 µM (≈ 0.245 µg/mL); against Mycobacterium avium [17] it was 8 µM (≈ 4 µg/mL); against Enterococcus sp. [7], 31.2 µM (≈ 15.6 µg/mL); in series [8] it was 0.49 µM (≈ 0.245 µg/mL); in the series with Mycobacterium kansasii [18], 4 µM (≈ 2 µg/mL). The MIC with Mycobacterium kansasii [19] was 1 µM (≈ 0.5 µg/mL); with Staphylococcus aureus [9], 0.49 µM (≈ 0.245 µg/mL); with Mycobacterium kansasii [21] it was 4 µM (≈ 2 µg/mL); in [22], 1 µM (≈ 0.5 µg/mL); in series [23] it was 1 µM (≈ 0.5 µg/mL); against Mycobacterium kansasii [24] it was 4 µM (≈ 2 µg/mL). The MIC in the series with Staphylococcus aureus [10] was 0.49 µM (≈ 0.245 µg/mL); in the series on Mycobacterium avium [25] it was 8 µM (≈ 4 µg/mL). Further, the values for the IC50 in the series with HepG2 [1] and in the series with HepG2 [20] were > 50 µM and 2.5 µM, respectively. Moreover, the “Selectivity Index” value is >102 in series [4] and >6.25 in series [16]. The selectivity ratio in series [13] was > 50.

The values are drawn from ChEMBL document CHEMBL3396981, “Synthesis and in vitro biological evaluation of 2-(phenylcarbamoyl)phenyl 4-substituted benzoates” (Bioorg Med Chem, 2015).
